# Assay results: paper PMC7434922, “Key role of quinone in the mechanism of respiratory complex I” (Nature Communications, 2020)
# T1: Complex I subunit Nqo4 (Thermus thermophilus) (T. thermophilus HB8, UniProt Q56220 1-409)
# T1 construct: Nqo4, core subunit of the peripheral arm of respiratory complex I, Thermus thermophilus HB8; Endogenous subunit inside the crystallised intact complex; source: purified from T. thermophilus HB8 cells as part of intact complex I (anion exchange, cation exchange, gel filtration)
# T1 sequence (looked up): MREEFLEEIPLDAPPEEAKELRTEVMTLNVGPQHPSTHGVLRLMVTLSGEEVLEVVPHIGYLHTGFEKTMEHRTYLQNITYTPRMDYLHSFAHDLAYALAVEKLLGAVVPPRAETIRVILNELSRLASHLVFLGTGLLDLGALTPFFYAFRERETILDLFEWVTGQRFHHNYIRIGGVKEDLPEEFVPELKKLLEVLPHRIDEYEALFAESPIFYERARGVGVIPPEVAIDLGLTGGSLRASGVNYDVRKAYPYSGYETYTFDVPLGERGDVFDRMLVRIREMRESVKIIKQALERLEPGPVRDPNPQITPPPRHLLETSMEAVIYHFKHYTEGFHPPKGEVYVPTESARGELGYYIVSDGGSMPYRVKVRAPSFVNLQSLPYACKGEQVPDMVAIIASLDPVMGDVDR
# B1: Complex I subunit Nqo8 (Thermus thermophilus) (natural protein, T. thermophilus HB8, UniProt Q60019 1-365, looked up)
# chain: MTWSYPVDPYWMVALKALLVVVGLLTAFAFMTLIERRLLARFQVRMGPNRVGPFGLLQPLADAIKSIFKEDIVVAQADRFLFVLAPLISVVFALLAFGLIPFGPPGSFFGYQPWVINLDLGILYLFAVSELAVYGIFLSGWASGSKYSLLGSLRSSASLISYELGLGLALLAPVLLVGSLNLNDIVNWQKEHGWLFLYAFPAFLVYLIASMAEAARTPFDLPEAEQELVGGYHTEYSSIKWALFQMAEYIHFITASALIPTLFLGGWTMPVLEVPYLWMFLKIAFFLFFFIWIRATWFRLRYDQLLRFGWGFLFPLALLWFLVTALVVALDLPRTYLLYLSALSFLVLLGAVLYTPKPARKGGGA
# notes: Nqo8, core subunit of the membrane domain of respiratory complex I, Thermus thermophilus HB8; Endogenous subunit inside the crystallised intact complex; source: purified from T. thermophilus HB8 cells as part of intact complex I (anion exchange, cation exchange, gel filtration)
# Key:
# [1] = target: T2, T. thermophilus complex I (quinone site, Q-site) (Thermus thermophilus, UniProt Q56218+Q56220+Q60019); test: NADH:DQ oxidoreductase activity, absorbance at […] nm; assay type: biochemical
# T2 construct: gene nqo4; native intact complex purified from T. thermophilus HB8 membranes in TDM; 16 subunits, 550 kDa; for crystals recombinant His-tagged Nqo16 (E. coli) was added; activity preparation has sub-stoichiometric Nqo16; with NADH-quinone oxidoreductase subunit 1; NADH-quinone oxidoreductase subunit 2; NADH-quinone oxidoreductase subunit 3; NADH-quinone oxidoreductase subunit 5; NADH-quinone oxidoreductase subunit 7; NADH-quinone oxidoreductase subunit 9; NADH-quinone oxidoreductase subunit 10; NADH-quinone oxidoreductase subunit 11; NADH-quinone oxidoreductase subunit 12; NADH-quinone oxidoreductase subunit 13; NADH-quinone oxidoreductase subunit 14; NADH-quinone oxidoreductase subunit 15; NADH-quinone oxidoreductase subunit 16
# [2] = target: T2, T. thermophilus complex I (quinone site, Q-site); test: biochemical; set-up: NADH:decylubiquinone oxidoreductase activity of purified complex I, NADH absorbance at 340 nm, 50 °C
# Protocol: Complex I activity was measured at 50 °C with DQ as an electron acceptor. To a 2 mL quartz cuvette containing DQ assay buffer (50 mM Bis–Tris pH 6.0, 25 mM NaCl, 2 mM CaCl2), 0.25 mg mL^−1 asolectin (Fluka), 8 μg mL^−1 complex I protein, and 100 μM DQ were added. The sample was incubated for 5 min whilst stirred at 400 rpm, to allow for the equilibration of the protein/DQ/lipid/detergent mixture. The reaction was started by adding 100 μM NADH and the change in absorbance was followed at 340 nm, over 30 s under constant stirring. Specific enzyme activity was calculated in μmol NADH oxidized mg^−[…]. When required, inhibitors of complex I were added after DQ, prior to the 5-min incubation period. Lipids were prepared by mixing asolectin in a small volume of chloroform (1 mL) before evaporating the solvent under a stream of nitrogen gas, and were resuspended in 1% CHAPS to a final concentration of 5 mg mL^−1 before use. […] IC50’s for a range of common complex I inhibitors are listed in the Supplementary Table 3. […] Crystal structures of complex I with bound DQ and Q-like inhibitors also show a rotation of PA, like that observed in MJ–MN transition. However, its degree of torsion depends strongly on the Q-ligand, with DQ introducing the largest conformational change (Supplementary Fig. 7d, e). All Q-like ligands studied here display a similar pattern of interactions at the deepest end of the Q-cavity, with the headgroup about 12 Å away from cluster N2 (Fig. 4). A shared feature between all ligands bound in the Q-site is a hydrogen bond interaction of a ketone group from the quinone ring with the conserved and essential for complex I activity Y87_4[16],[36]. Other key residues, such as H38_4 from the key β1–β2 loop (33-QHPSTHG-39) in Nqo4 and M51_6, also contribute to the stabilization of the quinone ring, while secondary residues are involved specifically in the binding of each ligand (Fig. 4 and Supplementary Fig. 2). […] In the case of [compound left out], H38_4 stabilizes its outer ether group, while M51_6 interacts with the oxygen in the furanose ring (Fig. 4c). The distal nitrobenzene moiety is surrounded by both charged and nonpolar residues that, despite the lack of direct interaction, might form a suitable pocket for its accommodation.
# [3] = target: T1, Complex I subunit Nqo4 (Thermus …); test: crystal structure; intact complex I purified from T. thermophilus mixed with purified recombinant Nqo16 (1:0.2 CXI:Nqo16), sitting drop at 23 °C, 100 mM Bis-Tris pH 6.0, 19-25% PEG 4000, 100 mM KCl, 100 mM glutaric acid, detergents; native crystals and crystals soaked or co-crystallised with NADH, decylubiquinone, piericidin A, aureothin or pyridaben; settings: both partners purified
# [4] = target: T3, Intact complex I (NADH:ubiquinone oxidoreductase) purified from Thermus thermophilus, the form without Nqo16 (T. thermophilus HB8, UniProt Q56222 1-438; Q56221 1-181; Q56223 1-783; Q56220 1-409; Q56219 1-207; Q56218 …); test: as above; settings: both partners purified
# T3 construct: Nqo1, complex I subunit, Thermus thermophilus HB8; Nqo2, complex I subunit, Thermus thermophilus HB8; Nqo3, complex I subunit, Thermus thermophilus HB8; Nqo4, complex I subunit, Thermus thermophilus HB8; Nqo5, complex I subunit, Thermus thermophilus HB8; Nqo6, complex I subunit, Thermus thermophilus HB8; Nqo7, complex I subunit, Thermus thermophilus HB8; Nqo8, complex I subunit, Thermus …
# [5] = target: B1; test: as above; settings: both partners purified
# T2 sequence (Q56222 whole entry partner, one chain of several): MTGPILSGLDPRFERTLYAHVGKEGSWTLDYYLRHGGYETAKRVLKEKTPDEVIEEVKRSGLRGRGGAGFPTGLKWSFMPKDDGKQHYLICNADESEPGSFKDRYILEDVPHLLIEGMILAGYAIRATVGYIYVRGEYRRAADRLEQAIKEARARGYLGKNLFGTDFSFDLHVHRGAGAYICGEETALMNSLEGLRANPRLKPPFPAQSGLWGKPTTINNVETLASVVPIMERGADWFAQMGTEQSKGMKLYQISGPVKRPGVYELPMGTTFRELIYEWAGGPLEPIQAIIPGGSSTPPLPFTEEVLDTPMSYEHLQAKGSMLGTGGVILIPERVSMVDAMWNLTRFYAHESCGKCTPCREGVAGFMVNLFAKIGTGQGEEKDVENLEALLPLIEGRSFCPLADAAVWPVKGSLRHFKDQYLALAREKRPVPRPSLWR
molecule,measurement,setting,value
"C/C=C(\C)[C@H](O)[C@H](C)/C=C(C)/C=C/C/C(C)=C/Cc1nc(OC)c(OC)c(O)c1C [PIE, piericidin A]",IC50,[1],31 nM
"COc1oc([C@H]2C/C(=C/C(C)=C/c3ccc([N+](=O)[O-])cc3)CO2)c(C)c(=O)c1C [AUT, aureothin]",IC50,[1]; read-out: IC50,10.3 nM
C=C(C)[C@H]1Cc2c(ccc3c2O[C@@H]2COc4cc(OC)c(OC)cc4[C@@H]2C3=O)O1 [rotenone],IC50,[1]; read-out: IC50,190 nM
CCCCCCCCCC[C@H](O)[C@H]1CC[C@@H]([C@@H]2CC[C@H]([C@H](O)CCCCCCCCCC[C@@H](O)CC3=C[C@H](C)OC3=O)O2)O1 [Rolliniastatin-1],IC50,[2]; read-out: IC50 (nM in cell),930 nM
COc1cc(CNC(=O)CCCC/C=C/C(C)C)ccc1O [Capsaicin],IC50,[2]; read-out: IC50 (µM in cell),197000 nM
C/C=C(C)/C=C/C=C/[C@H](OC)[C@@H](C)[C@@H](OC)[C@@H](C)CCc1oc2c(O)c(OC)cc(OC)c2c(=O)c1C [Stigmatellin],IC50,[2]; read-out: IC50 (µM in cell),60000 nM
Cc1nn(C)c(Oc2ccccc2)c1/C=N/OCc1ccc(C(=O)OC(C)(C)C)cc1 [Fenpyroximate],IC50,[2]; read-out: IC50 (nM in cell),630 nM
"CC(C)(C)c1ccc(CSc2cnn(C(C)(C)C)c(=O)c2Cl)cc1 [PYR, pyridaben]",IC50,[1]; read-out: IC50,15.6 nM
B1,binding result,[3],binds
"Heterologously expressed subunit Nqo16 (ttha1528 gene), His-tagged (natural protein, T. thermophilus HB8, UniProt Q5SI52 1-131, looked up, reverse primer with the stop codon) and cloned into pet16b; Full length is read from the printed primers (start codon in the NdeI site to the stop codon); also called His-tagged Nqo16; source: E. coli BL21(DE3), purified (heat treatment 70 °C, Ni-NTA)) MVRVGMRAAPRVSLEALKAALGGLKLSEAKVYLITDWQDKRDQARYALLLHTGKKDLLVPDAFGPAFPGGEEALSELVGLLLAQGARRFYEAVVSPGEMTALLDLPPEELLKRVMAIANPTDPGIYLKRAA",binding result,[4],binds
"Complex I subunit Nqo10 (Thermus thermophilus) (natural protein, T. thermophilus HB8, UniProt Q56225 1-176, looked up, Nqo10, core subunit of the membrane domain of respiratory complex I, Thermus thermophilus HB8; Endogenous subunit inside the crystallised intact complex; source: purified from T. thermophilus HB8 cells as part of intact complex I (anion exchange, cation exchange, gel filtration)) MSLLEGLALFLLLLSGVLVVTLRNAIHAALALILNFLVLAGVYVALDARFLGFIQVIVYAGAIVVLFLFVIMLLFAAQGEIGFDPLVRSRPLAALLALGVAGILAAGLWGLDLAFTQDLKGGLPQALGPLLYGDWLFVLLAVGFLLMAATVVAVALVEPGKASRAKEAEKREEVAR",binding result,[5],binds
"Complex I subunit Nqo6 (Thermus thermophilus) (natural protein, T. thermophilus HB8, UniProt Q56218 1-181, looked up, Nqo6, core subunit of the peripheral arm of respiratory complex I, Thermus thermophilus HB8; Endogenous subunit inside the crystallised intact complex; source: purified from T. thermophilus HB8 cells as part of intact complex I (anion exchange, cation exchange, gel filtration)) MALKDLFERDVQELEREGILFTTLEKLVAWGRSNSLWPATFGLACCAIEMMASTDARNDLARFGSEVFRASPRQADVMIVAGRLSKKMAPVMRRVWEQMPDPKWVISMGACASSGGMFNNYAIVQNVDSVVPVDVYVPGCPPRPEALIYAVMQLQKKVRGQAYNERGERLPPVAAWKRTRG",binding result,[5],binds
